One series has as its system Vero E6 cells. To be noted: cited from earlier work.
For another series, the system named is A549-hACE2 cells. To be noted: cited from earlier work.
Series [1] concerns SARS-CoV-2. To be noted: read-out: Reported cell-based antiviral potency EC50; cited from earlier work.
Series [2] in a line: Plasma exposure after 50 mg/kg i.p. in male C57BL/6 mice.
Series [3] relates to PLpro. The conditions noted are these: cited from earlier work; for IC50: read-out: Reported enzyme inhibition potency IC50, see referenced publications for assay details.
For series [4] the following is noted: i.v. hamster, 2 mg/kg.
Series [5] is described as follows: in vivo. To be noted: male, C57BL/6, mouse, plasma.
Series [6] in a line: in vivo. To be noted: male, hamster, plasma.
The next series is described as follows: in vitro. The conditions noted are these: human.
The next series can be described thus: Plasma protein binding. To be noted: human.
The subject of series [7] is SARS-CoV-2 (strain WA1). Put plainly: Antiviral plaque assay in Vero cells with P-gp inhibitor CP-100356. Format: cell-based.
Series [8] deals with PLpro. The conditions noted are these: compared with all inhibitors studied; cited from earlier work.
Series [9] concerns SARS-CoV-2 (strain WA1). The series is classed as cell-based.
Series [10] can be described thus: Plasma PK of 32 (Figure S1).
A short description of series [11]: in vivo. To be noted: C57BL/6, mouse, plasma, ip, 25 mg/kg.
Series [12] in a line: Comparison of plasma PK of 10 and 42 (Figure S3). The conditions noted are these: 25 mg/kg i.p. (Figure S3).
The conditions of series [13]: 64 25 mg/kg i.p., between 0.5 to 5 h after administration.
The next series relates to COVID-19. To be noted: human, in vivo, po; cited from earlier work.
The subject of series [14] is SARS-CoV-2. To be noted: cited from earlier work.

The values below come from article PMC11345844, “Non-Covalent Inhibitors of SARS-CoV-2 Papain-Like Protease (PLpro): In Vitro and In Vivo Antiviral Activity” (Journal of Medicinal Chemistry, 2024).

Entries after “also recorded” stand apart in the source; their conditions may differ. Read-outs that look alike come from different tables or passages of the source.

On to `Cc1ccc(NC2CNC2)cc1C(=O)N[C@H](C)c1cccc(-c2ccc(CN3CCCC3)s2)c1` [Compound 2], for which the “potency against viral infection” value in the series on Vero E6 cells and with A549-hACE2 cells was “low micromolar potency” each time. For the same compound, in the series on SARS-CoV-2 [1], the EC50 (in general, the concentration giving half of the maximal effect) was 1.2 ± 0.2 µM. The toxicity observation result in [2] was “overt toxicity”.

On to `CC(=O)Nc1cccc(CNC(=O)C2CCN([C@H](C)c3cccc4ccccc34)CC2)c1` [Compound 3], for which the IC50 (commonly the midpoint of a concentration-inhibition curve) in the series on PLpro [3] is 2.69 ± 0.34 µM.

Turning to `Nc1ccc2cc3ccc(N)cc3nc2c1` [Compound 6, proflavine], the IC50 in the series on PLpro [3] was 1.46 µM.

Turning to `COC(=O)/C=C/CNC(=O)CNC(=O)[C@H](CN)NC(=O)[C@H](CCc1nc2ccccc2s1)NC(C)=O` [Compound 8], in the series on PLpro [3] (at 100 μM), the “Reported enzyme inhibition” value is “almost complete inhibition”.

For `Cc1ccc(NC2CNC2)cc1C(=O)N[C@H](C)c1cccc(-c2ccc(CNC3CCCC3)s2)c1` [Compound 10], the plasma clobs (i.v. mouse, 2 mg/kg) worked out at 111 ± 16 mL/min/kg and the plasma clobs in series [4] turned out to be 75 ± 5 mL/min/kg. The bioavailability entry (i.v./s.c., mice and hamsters, minor species differences) is listed as “good”. The “potency against viral infection” value in the series with Vero E6 cells and in the series on A549-hACE2 cells was “low micromolar potency” in each case. Moreover, the peak concentration (Cmax) (commonly the maximum level reached in the sampled fluid or tissue) stood at 734 ± 125 ng/mL in the series “in vivo [5]” (iv, 2 mg/kg); 3190 ± 667 ng/mL in “in vivo [5]” (sc, 50 mg/kg); 2920 ± 474 ng/mL in the series “in vivo [6]” (iv, 2 mg/kg); 1220 ± 276 ng/mL in “in vivo [6]” (sc, 20 mg/kg). Besides, the CC50 in the series “in vitro” was found to be 43 ± 1.8 µM. The half-life (in general, the time in which the quantity being followed falls by half) in the series “Human plasma stability” is 60 h. The unbound share (fraction unbound) (in general, free concentration divided by total concentration) in “Plasma protein binding” was 0.033.

Turning to `Cc1ccc(NC2CNC2)cc1C(=O)N[C@H](C)c1cccc(-c2ccc(CN[C@H]3CC[C@@H](O)C3)s2)c1` [Compound 11], the “efficacy in inhibiting viral replication (plaque assay)” value in the series with SARS-CoV-2 (strain WA1) [7] is reported as “least efficacious compound”. The off-rate result with PLpro [8] is “lowest off-rate”.

With `Cc1ccc(NC2CNC2)cc1C(=O)N[C@H](C)c1cccc(-c2cc(C)c(CNC3CCCC3)s2)c1` [Compound 16, (R)-5-(Azetidin-3-ylamino)-N-(1-(3-(5-((cyclopentylamino)methyl)-4-methylthiophen-2-yl)phenyl)ethyl)-2 Methylbenzamide], in “in vitro”, the CC50 turned out to be 27 ± 1.4 µM.

Regarding `Cc1ccc(NC2CNC2)cc1C(=O)N[C@H](C)c1cccc(-c2ccc(CNC(=O)C3CCCC3)s2)c1` [Compound 32, (R)-5-(Azetidin-3-ylamino)-N-(1-(3-(5-(cyclopentanecarboxamidomethyl)thiophen-2-yl)phenyl)ethyl)-2-methylbenzamide], the “efficacy in inhibiting viral replication (plaque assay)” value in the series with SARS-CoV-2 (strain WA1) [7] is “almost complete loss of antiviral activity”. For the same compound, in the series on SARS-CoV-2 (strain WA1) [9], the “antiviral activity by RT-PCR of viral RNA” value is reported as “lack of activity”. In addition, in series [10] (25 mg/kg i.p. (Figure S1)), the bioavailability administered i.p. result is “good bioavailability”. Also, the oral bioavailability entry in series [10] (p.o. 100 mg/kg in corn oil, gavage (Figure S1)) is reported as “without oral bioavailability”.

In “in vivo [11]”, `Cc1ccc(NC2CNC2)cc1C(=O)N[C@H](C)c1cccc(-c2ccc(CN[C@H]3CC[C@@H](C(=O)O)C3)s2)c1` [Compound 39, (1R,3S)-3-(((5-(3-((R)-1-(5-(Azetidin-3-ylamino)-2-methylbenzamido)ethyl)phenyl)thiophen-2-yl)methyl)amino)cyclopentane-1-carboxylic Acid] had a maximum concentration (Cmax) of 7910 ng/mL and a half-life of 2 h.

For the compound `Cc1ccc(OC2CNC2)cc1C(=O)N[C@H](C)c1cccc(-c2ccc(CN3CCCC3)s2)c1` [Compound 42, (R)-5-(Azetidin-3-yloxy)-2-methyl-N-(1-(3-(5-(pyrrolidin-1-ylmethyl)thiophen-2-yl)phenyl)ethyl)benzamide], in the series on SARS-CoV-2 (strain WA1) [7], the “efficacy in inhibiting viral replication (plaque assay)” value is recorded as “relatively higher efficacy”. The “in vivo exposure compared to 10” value in series [12] is listed as “significantly lower exposure”.

For the compound `Cc1ccc(OC2CCNCC2)cc1C(=O)N[C@H](C)c1cccc(-c2ccc(CNC3CCCC3)s2)c1` [Compound 44, (R)-N-(1-(3-(5-((Cyclopentylamino)methyl)thiophen-2-yl)phenyl)ethyl)-2-methyl-5-(piperidin-4-yloxy)benzamide], the CC50 in the series “in vitro” is 22 ± 0.9 µM.

For the compound `Cc1ccc(OCCN)cc1C(=O)N[C@H](C)c1cccc(-c2ccc(CN3CCCC3)s2)c1` [Compound 48, (R)-5-(2-Aminoethoxy)-2-methyl-N-(1-(3-(5-(pyrrolidin-1-ylmethyl)thiophen-2-yl)phenyl)ethyl)benzamide], in the series on SARS-CoV-2 (strain WA1) [7], the “efficacy in inhibiting viral replication (plaque assay)” value is on record as “low efficacy”.

Take `CC(=O)OC(C)OC(=O)N1CC(Nc2ccc(C)c(C(=O)N[C@H](C)c3cccc(-c4ccc(CNC(=O)C5CCCC5)s4)c3)c2)C1` (stereo partly drawn) [Compound 62, 1-Acetoxyethyl 3-((3-(((R)-1-(3-(5-(cyclopentanecarboxamidomethyl)thiophen-2-yl)phenyl)ethyl)carbamoyl)-4-methylphenyl)amino)azetidine-1-carboxylate]: in the series on SARS-CoV-2 (strain WA1) [9], the “antiviral activity by RT-PCR of viral RNA” value is listed as “not greatly improved”.

In the case of `Cc1ccc(NC2CNC2)cc1C(=O)N[C@H](C)c1cccc(-c2ccc(CN[C@H]3CC[C@@H](C(=O)OC[C@H]4O[C@@H](n5ccc(NO)nc5=O)[C@H](O)[C@@H]4O)C3)s2)c1` [Compound 64, ((3S,4R,5R)-3,4-Dihydroxy-5-(4-(hydroxyamino)-2-oxopyrimidin-1(2H)-yl)tetrahydrofuran-2-yl)methyl (1R,3S)-3-(((5-(3-((R)-1-(5-(azetidin-3-ylamino)-2-methylbenzamido)ethyl)phenyl)thiophen-2-yl)methyl)amino)cyclopentane-1-carboxylate], the “detection of mutual prodrug in plasma” value in series [13] was “not detectable; also recorded: undetectable”.

Turning to `CC(C)C(=O)OC[C@H]1O[C@@H](n2cc/c(=N\O)[nH]c2=O)[C@H](O)[C@@H]1O` [Compound 65, Molnupiravir], in the series with COVID-19, the “efficacy against hospitalization or death” value is given as “about 30%”.

On to `CC(C)(C)[C@H](NC(=O)C(F)(F)F)C(=O)N1C[C@H]2[C@@H]([C@H]1C(=O)N[C@H](C#N)C[C@@H]1CCNC1=O)C2(C)C` [nirmatrelvir], for which the “left-shift in the response caused by CP-100356” value with SARS-CoV-2 [14] is on record as “ca. 100 fold”.
